Reference: US5639904A, “1-aryloxy-3-alkylamino-2-propanol nitrate esters, the use thereof and corresponding pharmaceutical composition” (Prodesfarma, S.A., priority 1993, dated 1997)
Read-outs that look alike come from different tables or passages of the source.

Legend:
Format in all cases: cell-based
[1] = system: helical strips of swine coronary artery (potassium-induced contraction); experiment: In vitro coronary vasodilator activity: antagonism of contractions induced by potassium (35 mM); details: Sus scrofa; for IC50: read-out: inhibitory concentration 50 (IC50), effect on K+-induced contractions in swine coronary artery; for inhibition at 100 µM: read-out: inhibition of K+-induced contractions in swine coronary artery
Protocol: (§1) The coronary vasodilator activity of the synthesized products was determined in vitro from their capacity to antagonize the contractions induced by a) potassium (35 mM) b) calcium (1.5 mM) and c) serotonin (1 mM) in helical strips of swine coronary artery, using Nitroglycerine and Nicorandil as reference drugs (Table 1).

[2] = biological target: T1, β1-adrenergic (isolated guinea pig left auricle) (Cavia porcellus, UniProt H0W3H1); experiment: In vitro β1-adrenergic blocking activity: antagonism of isoprenaline-induced positive inotropic response in electrically stimulated isolated left auricle
T1 construct: electrically stimulated isolated left auricle of the guinea pig; from tissue; host or cells: isolated left auricle of guinea pig
Excerpt: In parallel tests, the effect of the said compounds on the positive isoprenaline-induced inotropic response in electrically stimulated isolated left auricle of the guinea pig, as evidence of β1 -adrenergic blocking activity (Table 2) was established.
BLOCKING ACTIVITY IN VITRO

[3] = system: helical strips of swine coronary artery (serotonin-induced contraction); experiment: In vitro coronary vasodilator activity: antagonism of contractions induced by serotonin (1 mM); details: Sus scrofa; for IC50: read-out: inhibitory concentration 50 (IC50), effect on serotonin-induced contractions in swine coronary artery
Protocol: as §1

[4] = system: helical strips of swine coronary artery (calcium-induced contraction); experiment: In vitro coronary vasodilator activity: antagonism of contractions induced by calcium (1.5 mM); details: Sus scrofa; for IC50: read-out: inhibitory concentration 50 (IC50), effect on Ca2+-induced contractions in swine coronary artery
Protocol: as §1

[5] = electrically stimulated isolated guinea pig left auricle, read-out: inhibitory concentration 50 (IC50), antagonism of isoprenaline-induced positive inotropic response

T1 sequence (H0W3H1 1-470): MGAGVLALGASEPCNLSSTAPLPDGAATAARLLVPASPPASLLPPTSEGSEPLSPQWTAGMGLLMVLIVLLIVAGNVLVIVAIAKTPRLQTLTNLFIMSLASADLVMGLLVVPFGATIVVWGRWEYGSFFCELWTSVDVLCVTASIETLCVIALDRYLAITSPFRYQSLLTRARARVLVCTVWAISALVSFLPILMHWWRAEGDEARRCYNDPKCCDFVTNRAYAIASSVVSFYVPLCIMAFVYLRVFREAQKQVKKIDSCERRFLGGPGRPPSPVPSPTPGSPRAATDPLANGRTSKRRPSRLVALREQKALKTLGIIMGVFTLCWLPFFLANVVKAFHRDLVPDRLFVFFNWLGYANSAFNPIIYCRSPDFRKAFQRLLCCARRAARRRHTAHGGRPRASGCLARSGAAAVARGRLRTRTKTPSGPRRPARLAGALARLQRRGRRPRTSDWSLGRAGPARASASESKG

Row | SMILES | IC50 ([1]; potassium 35 mM) [µM] | IC50 [2, 5] [nM] | IC50 ([3]; serotonin 1 mM) [µM] | other results
1 | CC(C)NCC(O)COc1c(CC(=O)NCCO[N+](=O)[O-])ccc2ccccc12 (stereo not drawn) [1-(2-hydroxy-3-isopropylamino)propoxy-N-(2-nitroxyethyl)-2-naphthalene acetamide] | 40.7 |  |  | 
2 | CC(C)NCC(O)COc1ccc(COCC(CO[N+](=O)[O-])O[N+](=O)[O-])cc1 (stereo not drawn) [1-isopropylamino-3-[4-(2,3-dinitroxy)-propoxymethyl]phenoxy-2-propanol] |  |  |  | IC50 [2]: 4800 nM; IC50 [1]: 0.5 µM; IC50 [3]: 1.6 µM; IC50 [4]: 1.7 µM
3 | CC(C)NCC(O)COc1ccc(COCCO[N+](=O)[O-])cc1 (stereo not drawn) [1-isopropylamino-3-[4-(2-nitroxy)ethoxymethyl]phenoxy-2-propanol] | 3.4 | 600 | 13.3 | 
4 | CC(C)NCC(O)COc1ccc(CC(N)=O)cc1 (stereo not drawn) [Atenolol, reference compound] |  |  |  | IC50 [2]: 700 nM; inhibition at 100 µM [1]: 25%
5 | COCCc1ccc(OCC(O)CNC(C)C)cc1 (stereo not drawn) [Metoprolol, reference compound] |  |  |  | inhibition at 100 µM ([1]; at 0.1 mM, potassium 35 mM): 30%; inhibition at 100 µM ([3]; serotonin 1 mM): 20%
6 | O=[N+]([O-])OCC(CO[N+](=O)[O-])O[N+](=O)[O-] [Nitroglycerine, reference compound] | 1.3 |  | 1 | inhibition at 100 µM ([4]; at 0.1 mM, calcium 1.5 mM, read-out: inhibition of Ca2+-induced contractions in swine coronary artery): 50%

Continued, in another order:

Row | IC50 ([1]; potassium 35 mM) [µM] | IC50 [2, 5] [nM] | IC50 ([3]; serotonin 1 mM) [µM] | SMILES | other results
7 | 7.1 | 700 | 6 | CC(C)NCC(O)COc1ccc(COCCCO[N+](=O)[O-])cc1 (stereo not drawn) [1-isopropylamino-3-[4-(3-nitroxy)propoxymethyl]phenoxy-2-propanol] | inhibition at 30 µM ([4]; at 30 μM, calcium 1.5 mM, read-out: inhibition of Ca2+-induced contractions in swine coronary artery): 50%
8 | 28.6 |  |  | CC(C)NCC(O)COc1ccc2ccccc2c1CC(=O)NCCO[N+](=O)[O-] (stereo not drawn) [2-(2-hydroxy-3-isopropylamino)propoxy-N-(2-nitroxyethyl)-1-naphthalene acetamide] | inhibition at 100 µM ([2]; at 0.1 mM, electrically stimulated isolated guinea pig left auricle): 25%; inhibition at 100 µM ([3]; serotonin 1 mM): 50%; inhibition at 10 µM ([4]; at 10 μM, calcium 1.5 mM, read-out: inhibition of Ca2+-induced contractions in swine coronary artery): 20%
9 | 0.3 | 7600 | 5.7 | CC(C)NCC(O)COc1ccc(CC(=O)OCCO[N+](=O)[O-])cc1 (stereo not drawn) [2-nitroxyethyl 4-[(2-hydroxy-3-isopropylamino)propoxy]phenyl acetate] | IC50 ([4]; calcium 1.5 mM): 13.1 µM
10 | 49.7 |  | 14.7 | O=C(NCCO[N+](=O)[O-])c1cccnc1 [Nicorandil, reference compound] | IC50 ([4]; calcium 1.5 mM): 169 µM
